Source: PMC8960095 (Virus Genes, 2022)
Read-outs that look alike come from different tables or passages of the source.

Experiments:
[1] = system: Vero-E6 cells; details: same study as IC50 against wt CHIKV; cited from earlier work
[2] = system: wt CHIKV; details: MOI 0.005, cited from earlier work
[3] = Toxicity assay; details: African green monkey, Vero-B4 cells (non-infected)
[4] = system: CHIKV^Brazil; type: cell-based, Chikungunya virus; details: MOI 0.64, RBV 410 µM (p < 0.001), HCQ 10 µM (p < 0.0001)
[5] = system: wt CHIKV^Brazil; experiment: IC50 evaluation: inhibition of CHIKV-induced cell death; type: cell-based, Chikungunya virus; details: for IC50: Chikungunya virus, 96 h, read-out: IC50 (µM) U138; for dose-dependent inhibition of CPE / antiviral effect in U138: U138 cells, wt CHIKV^Brazil
[6] = system: wt CHIKV^Brazil; experiment: as above; type: cell-based, Chikungunya virus; details: for dose-dependent inhibition of CPE / efficacy in Vero-B4: Vero-B4 cells, CHIKV^Brazil, T-1105 range 5–100 µM
[7] = Toxicity assay; details: human, U138 cells (non-infected)
[8] = system: U138 cells; experiment: Toxicity assay; details: for cell damage in toxicity testing: non-infected U138, HCQ 10 µM, T-1105 10 and 50 µM, 4 days
[9] = system: Vero-B4 cells; experiment: Toxicity assay; details: read-out: CC50 (µM) Vero-B4; non-infected Vero-B4 cells; MTS after 4 days
[10] = system: Vero cells; details: cited from earlier work
[11] = system: CHIKV Indian Ocean strain 899 (lab); details: MOI 0.01, Vero cells; cited from earlier work

Row | SMILES | CC50 [1] [µM] | IC50 ([2]; wt CHIKV) [µM] | CC50 at 4 days [3] [µM] | protection of U138 cells from CPE by wt CHIKV^Brazil compared with CHIKV^Ross [4] | IC50 [5] [µM] | dose-dependent inhibition of CPE / antiviral effect in U138 [5] | IC50 ([6]; Chikungunya virus, 96 h, read-out: IC50 (µM) Vero-B4) [µM] | dose-dependent inhibition of CPE / efficacy in Vero-B4 [6] | CC50 at 4 days [7] [µM] | cell damage in toxicity testing [8] | surviving cells ([6]; 1000 µM RBV (highest concentration), infected Vero-B4 cells, at MOI 0.325) [%] | IC50 ([2]; comparable experiments in Vero-E6 cells) [µM] | viability at 4 days, 410 µM [7] [%] | CC50 [9] [µM] | CC50 [10] [µM] | IC50 [11] [µM] | CC50 ([8]; read-out: CC50 (µM) U138, non-infected U138 cells, MTS after 4 days) [µM]
1 | CCN(CC)CCCC(C)Nc1ccnc2cc(Cl)ccc12 (stereo not shown) [CQ, chloroquine] | > 36 | 5 to 10.6 | – | – | – | – | – | – | – | – | – | – | – | – | – | – | –
2 | CCN(CCO)CCCC(C)Nc1ccnc2cc(Cl)ccc12 (stereo not shown) [Hydroxychloroquine, hydroxychloroquine] | – | – | 49.6 | significantly better | 4.14 | dose-dependent inhibition of CPE | 18.3 | dose-dependent inhibition of CPE | 35.5 | Neither T-1105 nor HCQ led to significant cell damage | – | – | – | – | – | – | –
3 | NC(=O)c1ncn([C@@H]2O[C@H](CO)[C@@H](O)[C@H]2O)n1 [Ribavirin, ribavirin] | > 500 | 424 | > 1000 | significantly better | 166 | dose-dependent inhibition of CPE | – | dose-dependent inhibition of CPE | > 500 | – | 37.55 ± 6.15 | 424 to 766 | 70.4 ± 13.1 | – | – | – | –
4 | NC(=O)c1ncc[nH]c1=O [T-1105] | – | – | – | – | – | dose-dependent effect | – | no dose-dependent efficacy | – | Neither T-1105 nor HCQ led to significant cell damage | – | – | – | > 100 | 571 | 7 to 47 | > 100
